Results on 15 compounds are retold here after patent publication US11897898B2, “Pyridine macrocycle compounds as ASK1 inhibiting agents” (BIOGEN MA INC., priority 2018, dated 2024).

The target in one test is T1, ASK1/MAP3K5 (Homo sapiens, UniProt Q99683).
T1 construct: purchased Reaction Biology Corp. (Malvern, Pa.)
T1 sequence (Q99683 1-1374): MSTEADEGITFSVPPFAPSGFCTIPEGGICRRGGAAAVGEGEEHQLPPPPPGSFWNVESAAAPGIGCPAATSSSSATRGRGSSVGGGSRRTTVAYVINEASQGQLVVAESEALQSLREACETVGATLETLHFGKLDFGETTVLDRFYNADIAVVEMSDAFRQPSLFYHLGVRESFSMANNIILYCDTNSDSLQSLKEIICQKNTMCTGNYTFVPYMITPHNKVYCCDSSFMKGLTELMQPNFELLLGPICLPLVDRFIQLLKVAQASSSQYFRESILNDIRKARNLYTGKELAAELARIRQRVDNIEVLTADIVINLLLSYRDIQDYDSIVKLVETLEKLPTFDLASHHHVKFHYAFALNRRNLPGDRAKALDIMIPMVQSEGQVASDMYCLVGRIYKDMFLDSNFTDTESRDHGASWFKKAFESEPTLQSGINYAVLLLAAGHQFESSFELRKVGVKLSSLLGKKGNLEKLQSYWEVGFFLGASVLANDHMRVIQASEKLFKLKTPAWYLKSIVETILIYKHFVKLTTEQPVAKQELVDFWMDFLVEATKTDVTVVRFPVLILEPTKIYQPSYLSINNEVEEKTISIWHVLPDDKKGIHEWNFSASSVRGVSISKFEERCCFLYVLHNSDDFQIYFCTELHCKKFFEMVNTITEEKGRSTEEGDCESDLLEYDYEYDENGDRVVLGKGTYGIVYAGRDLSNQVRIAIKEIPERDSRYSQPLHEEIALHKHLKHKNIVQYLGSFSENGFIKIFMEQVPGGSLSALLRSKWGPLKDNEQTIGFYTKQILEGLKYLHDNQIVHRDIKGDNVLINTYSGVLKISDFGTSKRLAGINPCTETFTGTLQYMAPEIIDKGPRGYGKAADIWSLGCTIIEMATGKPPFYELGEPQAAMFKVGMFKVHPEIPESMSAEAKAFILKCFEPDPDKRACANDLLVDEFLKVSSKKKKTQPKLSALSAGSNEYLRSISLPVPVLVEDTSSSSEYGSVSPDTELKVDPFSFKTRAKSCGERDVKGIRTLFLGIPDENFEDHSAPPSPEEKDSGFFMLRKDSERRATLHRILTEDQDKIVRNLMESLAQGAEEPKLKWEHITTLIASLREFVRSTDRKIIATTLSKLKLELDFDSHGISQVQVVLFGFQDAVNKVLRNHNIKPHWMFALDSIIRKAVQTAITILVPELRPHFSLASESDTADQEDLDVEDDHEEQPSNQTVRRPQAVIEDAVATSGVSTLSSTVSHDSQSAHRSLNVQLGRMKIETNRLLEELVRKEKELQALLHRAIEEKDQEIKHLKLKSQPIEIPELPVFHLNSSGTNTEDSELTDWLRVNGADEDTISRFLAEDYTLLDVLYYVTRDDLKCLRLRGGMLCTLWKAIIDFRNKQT
Description: ASK1 enzyme assay (ASK1/MAP3K5 assay by Reaction Biology Corp., 33P-ATP filter-binding). The class given is biochemical. Conditions: 20 μM myelin basic protein and 10 μM ATP; class symbols. The protocol: The protein kinase inhibitory activity of the compounds described herein were tested using the ASK1/MAP3K5 assay by Reaction Biology Corp. (Malvern, Pa.). The assay procedure follows (and is also available on the Reaction Biology Corp. website). • Base Reaction Buffer: 20 mM Hepes (pH 7.5), 10 mM MgCl2, 1 mM EGTA, • 0.02% Brij35, 0.02 mg/mL BSA, 0.1 mM Na3VO4, 2 mM DTT, 1% DMSO; • Substrate: 20 μM of myelin basic protein (MBP) and 10 μM ATP; • Protein kinase: ASK1/MAP3K5. • Reaction Procedure: • 1. Prepare indicated substrate in freshly prepared Base Reaction Buffer. • 2. Deliver any required cofactors to the substrate solution. • 3. Deliver indicated kinase into the substrate solution and gently mix. • 4. Deliver compounds in DMSO into the kinase reaction mixture by Acoustic; technology (Echo550; nanoliter range), incubate for 20 minutes at room temperature. • 5. Deliver ^33P-ATP (specific activity 10 μCi/μL) into the reaction mixture to initiate the reaction. • 6. Incubate kinase reaction for 2 hours at room temperature. • 7. Reactions are spotted onto P81 ion exchange paper. • 8. Detect kinase activity by filter-binding method.

Test [1] has as its target T2, ASK1 T838 auto phosphorylation (Homo sapiens, UniProt Q99683).
T2 construct: ASK1-V5 tagged full length plasmid; expressed in transfected cells; host or cells: HEK-293T
T2 sequence (Q99683 1-1374): T1 sequence (Q99683 1-1374)
Description: ASK1 (AUTO PHOS T838) assay in HEK-293T cells, MSD format. The class given is cell-based. Particulars: HEK-293T cells transfected with ASK1-V5, 1 hr compound incubation. The protocol:
ASK1 T838 auto phosphorylation was measured in HEK-293T cells using MSD assay format. HEK 293T cells were seeded in 15 cm plates at a density of 18 million cells and 20 mL DMEM with 10% FBS, Pen/Strep media. The plates were incubated at 37° C. overnight. Media on plates was changed to OPTI-MEM, serum free media and cells were transfected with 9 μg of ASK1-V5 tagged full length plasmid using Lipofectamine 2000 (Invitrogen) and the plates were incubated at 37° C. overnight. Cells were trypsinized, counted on Nexcellometer and plated into 96 well tissue culture plates with 100,000 cells/well and 200 μL media. Cells were incubated for 4 hr at 37° C. then ASK1 compounds were added using a HP 300e. Compounds were tested at 20 μM with 3 fold, 10 point dilution points then incubated for 1 hr at 37° C. A lysis buffer (Cell Signaling) was prepared with protease and phosphatase inhibitor and maintained at 4° C. until use. Media from cells was discarded and 120 μL of cold lysis buffer was added to the cells, the plate was shaken 4° C. for 1 hr. Lysate was mixed using Apricot liquid handler; aspirating up and down 16 times at high speed using 50 μL volume. 50 μL of cell lysates were transferred to a pre-coated MSD plates containing mouse anti-V5 antibody (1:500 dilution) and washed 3× with MSD wash buffer (TBST) and blocked with a 3% BSA solution. Plates were then incubated on a plate shaker overnight at 4° C. Plates were washed 3× with MSD wash buffer and 50 μL of rabbit anti-pASK1 T838 antibody was added to the wells and incubated for 2 hr at room temperature on a plate shaker. Plates were then washed and 50 μL of goat anti-rabbit sulfa-tag (1:500 dilution) was added to wells, and incubated for 1 hr at room temperature on a plate shaker. Plates were washed 3× and 150 μL of 2×MSD Read buffer was added to wells. Plates were immediately read on a MSD Instrument Reader where chemoluminecense signal was measured. Data was analyzed using Graph Pad or Genedata, the data was normalized and plotted, % activity versus log of compound concentration. The IC50 values were obtained from a 4 parameter fit.

For orientation: IC50 means the concentration at which inhibition is half-maximal. Read a high IC50 as weaker potency.

`CC1CCCOc2ncccc2C(=O)Nc2cccc(n2)-c2nncn21` (stereo not drawn) [Compound 3, 10-Methyl-1^4H-6-oxa-3-aza-2(2,6),5(3,2)-dipyridina-1(3,4)-triazolacyclodecaphan-4-one]: the half-inhibitory concentration (IC50) at ASK1/MAP3K5 is not above 100 nM; in test [1] (class symbols), 100 to 1000 nM.

Take `C[C@H]1CCCOc2ncc(N3CCOCC3)cc2C(=O)Nc2cccc(n2)-c2nncn21` [Compound 7, (S)-10-Methyl-5^5-morpholino-1^4H-6-oxa-3-aza-2(2,6),5(3,2)-dipyridina-1(3,4)-triazolacyclodecaphan-4-one]: the IC50 (at ASK1/MAP3K5; in test [1] (class symbols)) was not above 100 nM throughout.

In the case of `C[C@H]1CCCOc2ncc(N3CC4CC(C3)O4)cc2C(=O)Nc2cccc(n2)-c2nncn21` [Compound 8, (10S)-5^5-(6-Oxa-3-azabicyclo[3.1.1]heptan-3-yl)-10-methyl-1^4H-6-oxa-3-aza-2(2,6),5(3,2)-dipyridina-1(3,4)-triazolacyclodecaphan-4-one], the IC50 (at ASK1/MAP3K5; in test [1] (class symbols)) was not above 100 nM throughout.

For the compound `C[C@H]1CCCOc2ncc(N3CC(F)(F)C3)cc2C(=O)Nc2cccc(n2)-c2nncn21` [Compound 9, (S)-5^5-(3,3-Difluoroazetidin-1-yl)-10-methyl-1^4H-6-oxa-3-aza-2(2,6),5(3,2)-dipyridina-1(3,4)-triazolacyclodecaphan-4-one], the half-inhibitory concentration (IC50) (at ASK1/MAP3K5; in test [1] (class symbols)) was not above 100 nM in each case.

For the compound `C[C@@H]1CN(c2cnc3c(c2)C(=O)Nc2cccc(n2)-c2nncn2[C@@H](C)CCCO3)C[C@H](C)N1` [Compound 11, (S)-5^5-((3S,5R)-3,5-Dimethylpiperazin-1-yl)-10-methyl-1^4H-6-oxa-3-aza-2(2,6),5(3,2)-dipyridina-1(3,4)-triazolacyclodecaphan-4-one], the IC50 (on ASK1/MAP3K5; in test [1] (class symbols)) was not above 100 nM each time.

For `C[C@@H]1CN(c2cnc3c(c2)C(=O)Nc2cccc(n2)-c2nncn2[C@@H](C)CCCO3)C[C@@H](C)N1` [Compound 14, (S)-5^5-((3R,5R)-3,5-Dimethylpiperazin-1-yl)-10-methyl-1^4H-6-oxa-3-aza-2(2,6),5(3,2)-dipyridina-1(3,4)-triazolacyclodecaphan-4-one], the half-inhibitory concentration (IC50) on ASK1/MAP3K5 was not above 100 nM; in test [1] (class symbols), 100 to 1000 nM.

Take `C[C@H]1CCCOc2ncc(C3=CCN(C)CC3)cc2C(=O)Nc2cccc(n2)-c2nncn21` [Compound 15, (S)-10-Methyl-5^5-(1-methyl-1,2,3,6-tetrahydropyridin-4-yl)-1^4H-6-oxa-3-aza-2(2,6),5(3,2)-dipyridina-1(3,4)-triazolacyclodecaphan-4-one]: the IC50 (on ASK1/MAP3K5; in test [1] (class symbols)) was not above 100 nM each time.

On to `COc1ccc(-c2cnc3c(c2)C(=O)Nc2cccc(n2)-c2nncn2[C@@H](C)CCCO3)cn1` [Compound 20, (S)-5^5-(6-Methoxypyridin-3-yl)-10-methyl-1^4H-6-oxa-3-aza-2(2,6),5(3,2)-dipyridina-1(3,4)-triazolacyclodecaphan-4-one], for which the 50% inhibitory concentration (IC50) (at ASK1/MAP3K5; in test [1] (class symbols)) was not above 100 nM each time.

Consider `C[C@H]1CCCOc2ncc(-c3cnccn3)cc2C(=O)Nc2cccc(n2)-c2nncn21` [Compound 22, (S)-10-Methyl-5^5-(pyrazin-2-yl)-1^4H-6-oxa-3-aza-2(2,6),5(3,2)-dipyridina-1(3,4)-triazolacyclodecaphan-4-one], for which the IC50 (at ASK1/MAP3K5; in test [1] (class symbols)) was not above 100 nM in each case.

Turning to `C[C@H]1CCCOc2ncc(-c3ccnnc3)cc2C(=O)Nc2cccc(n2)-c2nncn21` [Compound 23, (S)-10-Methyl-5^5-(pyridazin-4-yl)-1^4H-6-oxa-3-aza-2(2,6),5(3,2)-dipyridina-1(3,4)-triazolacyclodecaphan-4-one], the IC50 (at ASK1/MAP3K5; in test [1] (class symbols)) was not above 100 nM in each case.

Regarding `C[C@@H]1CCCOc2ncc(-c3cnn(CCN(C)C)c3)cc2C(=O)Nc2cccc(n2)-c2nncn21` [Compound 24, (R)-5^5-(1-(2-(Dimethylamino)ethyl)-1H-pyrazol-4-yl)-10-methyl-1^4H-6-oxa-3-aza-2(2,6),5(3,2)-dipyridina-1(3,4)-triazolacyclodecaphan-4-one], the 50% inhibitory concentration (IC50) (at ASK1/MAP3K5; in test [1] (class symbols)) was 1000 to 10000 nM each time.

Regarding `C[C@H]1CCCOc2ncc(-c3cnn(CCN(C)C)c3)cc2C(=O)Nc2cccc(n2)-c2nncn21` [Compound 25, (S)-5^5-(1-(2-(Dimethylamino)ethyl)-1H-pyrazol-4-yl)-10-methyl-1^4H-6-oxa-3-aza-2(2,6),5(3,2)-dipyridina-1(3,4)-triazolacyclodecaphan-4-one], the IC50 (on ASK1/MAP3K5; in test [1] (class symbols)) was not above 100 nM in each case.

On to `C[C@H]1CCCOc2ncc(-c3cncn3C)cc2C(=O)Nc2cccc(n2)-c2nncn21` [Compound 28, (S)-10-Methyl-5^5-(1-methyl-1H-imidazol-5-yl)-1^4H-6-oxa-3-aza-2(2,6),5(3,2)-dipyridina-1(3,4)-triazolacyclodecaphan-4-one], for which the IC50 (on ASK1/MAP3K5; in test [1] (class symbols)) was not above 100 nM throughout.

Take `C[C@@H]1CCCOc2ncc(C#N)cc2C(=O)Nc2cccc(n2)-c2nncn21` [Compound 37, (R)-10-Methyl-4-oxo-1^4H-6-oxa-3-aza-2(2,6),5(3,2)-dipyridina-1(3,4)-triazolacyclodecaphane-5^5-carbonitrile]: the results for the IC50 (at ASK1/MAP3K5; in test [1]) were 1000 to 10000 nM and not below 10000 nM, respectively.

For the compound `C[C@H]1CCCOc2ncc(C(C)(C)O)cc2C(=O)Nc2cccc(n2)-c2nncn21` [Compound 39, (S)-5^5-(2-Hydroxypropan-2-yl)-10-methyl-1^4H-6-oxa-3-aza-2(2,6),5(3,2)-dipyridina-1(3,4)triazolacyclodecaphan-4-one], the IC50 is not above 100 nM at ASK1/MAP3K5 and 100 to 1000 nM in test [1] (class symbols).
